Consider 7 compounds from patent publication US8377884B2, “Variants of C-type natriuretic peptides” (Biomarin Pharmaceutical Inc., priority 2007, dated 2013).

The term half-life denotes the time in which the quantity being followed falls by half.

SMILES strings stand for the structures. Like-named read-outs stand apart in the source and are kept apart here. Bridge positions count the residues as written; N and C are the ends. Square brackets hold non-standard residues; d marks the D form. Peptide text beside a SMILES is read from it. * marks the point of attachment. CH3O(CH2CH2O)11CH2CH2CO = COCCOCCOCCOCCOCCOCCOCCOCCOCCOCCOCCOCCC(=O)*; Tle = CC(C)(C)[C@H](N)C(=O)O

The target in data set [1] is Recombinant human NEP (Homo sapiens, UniProt P08473). Kind of data set: In vitro neutral endopeptidase (NEP) cleavage assay. The gist of the method:
(§1)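 Recombinant human NEP (1 ug/mL final) incubated with 100 uM CNP variant in 0.1 M Tris, pH 7, at 37° C for various times, then quenched with EDTA (10 mM final) and heat. Samples reduced and analysed by HPLC and mass spectrometry. Half-life derived from loss of intact variant over time.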

For data set [2], the target named is neutral endopeptidase (NEP) (Homo sapiens, UniProt P08473). The data set is described as above. The settings on record: human, pH 7. Summed up: as §1
Data set [3] has as its target T1, NPR-B (Mus musculus, UniProt Q6VVW5).
T1 construct: Murine NIH3T3 cells express endogenously the CNP signaling receptor, NPR-B; endogenous in cells; host or cells: NIH3T3 (murine fibroblasts)
T1 sequence (Q6VVW5 17-1047): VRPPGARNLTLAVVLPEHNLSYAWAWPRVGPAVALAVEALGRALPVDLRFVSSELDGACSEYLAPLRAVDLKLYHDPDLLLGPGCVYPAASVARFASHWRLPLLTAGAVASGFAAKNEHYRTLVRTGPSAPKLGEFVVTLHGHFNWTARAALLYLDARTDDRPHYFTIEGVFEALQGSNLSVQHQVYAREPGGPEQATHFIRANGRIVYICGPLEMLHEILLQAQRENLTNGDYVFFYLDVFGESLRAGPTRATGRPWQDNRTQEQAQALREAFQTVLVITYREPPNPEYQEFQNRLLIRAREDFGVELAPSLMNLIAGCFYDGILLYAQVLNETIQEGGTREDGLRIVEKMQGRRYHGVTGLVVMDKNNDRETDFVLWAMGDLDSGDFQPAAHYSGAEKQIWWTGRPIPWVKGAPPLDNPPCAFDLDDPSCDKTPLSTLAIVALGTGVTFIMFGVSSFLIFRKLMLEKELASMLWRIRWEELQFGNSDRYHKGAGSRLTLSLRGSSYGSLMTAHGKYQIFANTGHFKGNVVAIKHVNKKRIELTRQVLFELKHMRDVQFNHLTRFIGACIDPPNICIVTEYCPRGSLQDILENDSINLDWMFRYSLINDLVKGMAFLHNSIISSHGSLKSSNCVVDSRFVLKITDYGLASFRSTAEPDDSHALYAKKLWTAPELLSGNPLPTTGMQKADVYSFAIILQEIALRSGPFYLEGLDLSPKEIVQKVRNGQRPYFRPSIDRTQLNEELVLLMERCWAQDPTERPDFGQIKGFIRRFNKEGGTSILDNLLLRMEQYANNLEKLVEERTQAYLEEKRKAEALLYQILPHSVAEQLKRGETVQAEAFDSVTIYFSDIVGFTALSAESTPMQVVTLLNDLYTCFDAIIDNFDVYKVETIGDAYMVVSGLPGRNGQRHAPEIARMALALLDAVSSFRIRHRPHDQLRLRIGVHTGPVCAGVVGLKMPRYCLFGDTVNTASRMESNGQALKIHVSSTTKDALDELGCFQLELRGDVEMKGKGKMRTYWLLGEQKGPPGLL
Nature of the data set: Stimulation of cGMP production in NIH3T3 cells. It is filed as cell-based, Murine. The note with it: for cGMP response relative to 1 uM CNP22 (%) at 0.01 µM: read-out: cGMP Response rel. to 1 uM CNP22, 10 nM; for cGMP response relative to 1 uM CNP22 (%) at 1 µM: read-out: cGMP Response rel. to 1 uM CNP22, 1 uM.

The mark [4] stands for this setting: in vitro NEP cleavage assay, assay period 160 minutes.
The mark [5] stands for this setting: NIH3T3 cells, 10 nM natriuretic peptide, normalized to cell number and cGMP production with 1 uM wtCNP22.
The mark [6] stands for this setting: NIH3T3 cells, 1 uM natriuretic peptide, normalized to cell number and cGMP production with 1 uM wtCNP22.

Sequence of neutral endopeptidase (NEP) (P08473 whole entry): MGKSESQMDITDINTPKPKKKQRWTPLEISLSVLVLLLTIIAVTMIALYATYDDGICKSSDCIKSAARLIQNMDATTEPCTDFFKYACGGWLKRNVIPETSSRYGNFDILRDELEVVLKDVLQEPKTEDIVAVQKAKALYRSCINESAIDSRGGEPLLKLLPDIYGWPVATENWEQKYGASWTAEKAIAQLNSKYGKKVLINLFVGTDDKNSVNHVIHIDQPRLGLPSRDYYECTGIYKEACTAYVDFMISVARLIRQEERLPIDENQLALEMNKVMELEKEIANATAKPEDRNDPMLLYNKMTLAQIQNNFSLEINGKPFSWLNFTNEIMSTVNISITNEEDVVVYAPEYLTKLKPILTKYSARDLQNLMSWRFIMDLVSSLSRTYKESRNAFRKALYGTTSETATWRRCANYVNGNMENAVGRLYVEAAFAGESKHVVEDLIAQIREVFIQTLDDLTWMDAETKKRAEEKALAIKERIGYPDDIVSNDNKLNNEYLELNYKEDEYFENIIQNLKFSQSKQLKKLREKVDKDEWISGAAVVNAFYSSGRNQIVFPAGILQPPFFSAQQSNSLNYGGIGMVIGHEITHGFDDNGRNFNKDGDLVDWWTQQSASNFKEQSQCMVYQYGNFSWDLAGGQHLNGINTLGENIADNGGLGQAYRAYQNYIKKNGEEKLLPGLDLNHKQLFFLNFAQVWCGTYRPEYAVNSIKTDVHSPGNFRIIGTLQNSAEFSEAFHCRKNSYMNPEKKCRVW
Sequence of Recombinant human NEP (P08473 whole entry): as above

Turning to `CC[C@H](C)[C@@H]1NC(=O)[C@H](CCCNC(=N)N)NC(=O)[C@H](CC(=O)O)NC(=O)[C@H](CC(C)C)NC(=O)[C@H](CCCCN)NC(=O)[C@H](CC(C)C)NC(=O)CNC(=O)[C@H](Cc2ccccc2)NC(=O)[C@@H](NC(=O)CNC(=O)[C@H](CCCNC(=N)N)NC(=O)[C@H](CO)NC(=O)[C@H](CC(C)C)NC(=O)CN)CSSC[C@@H](C(=O)O)NC(=O)CNC(=O)[C@H](CC(C)C)NC(=O)CNC(=O)[C@H](CO)NC(=O)[C@H](CCSC)NC(=O)[C@H](CO)NC(=O)[C@H](CC(N)=O)NC1=O` [BJ] (H-GLSRGCFGLKLDRINSMSGLGC-OH; disulfide 6-22 (inferred); N-terminus and C-terminus assumed), in data set [1] (setting [4]), the “resistance to NEP cleavage/degradation (in words)” value was “greatest resistance to NEP cleavage”. Besides, in data set [2], the half-life at 100 uM came out at 2.5 h. In data set [3] (NIH3T3, […]), the cGMP response relative to 1 uM CNP22 (%) at 0.01 µM came out at 4% and the cGMP response relative to 1 uM CNP22 (%) at 1 µM came out at 41%.
On to `CC[C@H](C)[C@@H]1NC(=O)[C@H](CCCNC(=N)N)NC(=O)[C@H](CC(=O)O)NC(=O)[C@H](CC(C)C)NC(=O)[C@H](CCCCN)NC(=O)[C@H](CC(C)C)NC(=O)CNC(=O)[C@H](Cc2ccccc2)NC(=O)[C@@H](NC(=O)CNC(=O)[C@H](CCCNC(=N)N)NC(=O)[C@H](CO)NC(=O)[C@H](CC(C)C)NC(=O)CNC(=O)[C@H](CCCNC(=N)N)NC(=O)CCOCCOCCOCCOCCOCCOCCOCCOCCOCCOCCOCCOC)CSSC[C@@H](C(=O)O)NC(=O)CNC(=O)[C@H](CC(C)C)NC(=O)CNC(=O)[C@H](CO)NC(=O)[C@H](CCSC)NC(=O)[C@H](CO)NC(=O)CNC1=O` [PEO12-R-CNP22, K4R] ({CH3O(CH2CH2O)11CH2CH2CO}-RGLSRGCFGLKLDRIGSMSGLGC-OH; disulfide 7-23), for which, in data set [1], the “resistance to NEP cleavage/degradation (in words)” value was “much more resistant to NEP degradation than CNP22”. Further, the half-life at 100 uM in data set [2] is ≥ 2.67 h. Further, the cGMP response relative to 1 uM CNP22 (%) at 0.01 µM in data set [3] (setting [5]) is 23 ± 2%. For the same compound, the cGMP response relative to 1 uM CNP22 (%) at 1 µM in data set [3] (setting [6]) is 93 ± 19%.
As for `CC[C@H](C)[C@@H]1NC(=O)[C@H](CCCNC(=N)N)NC(=O)[C@H](CC(=O)O)NC(=O)[C@H](CC(C)C)NC(=O)[C@H](CCCCN)NC(=O)[C@H](CC(C)C)NC(=O)[C@H](C(C)(C)C)NC(=O)[C@H](Cc2ccccc2)NC(=O)[C@@H](NC(=O)CNC(=O)[C@H](CCCCN)NC(=O)[C@H](CO)NC(=O)[C@H](CC(C)C)NC(=O)CN)CSSC[C@@H](C(=O)O)NC(=O)CNC(=O)[C@H](CC(C)C)NC(=O)CNC(=O)[C@H](CO)NC(=O)[C@H](CCSC)NC(=O)[C@H](CO)NC(=O)CNC1=O` [F] (H-GLSKGCF[Tle]LKLDRIGSMSGLGC-OH; disulfide 6-22 (inferred); N-terminus and C-terminus assumed), in data set [1], the “resistance to cleavage at the Cys6-Phe7 bond relative to wtCNP22” value is given as “resistance or improved resistance”. In addition, in data set [2] (recombinant human neutral endopeptidase (NEP)), the half-life at 100 uM was 1.33 h. Also, the cGMP response relative to 1 uM CNP22 (%) at 0.01 µM in data set [3] (setting [5]) was determined as 2%. In data set [3] (setting [6]), the cGMP response relative to 1 uM CNP22 (%) at 1 µM is 18%.
Consider `CC[C@H](C)[C@@H]1NC(=O)[C@H](CCCNC(=N)N)NC(=O)[C@H](CC(=O)O)NC(=O)[C@H](CC(C)C)NC(=O)[C@H](CCCCN)NC(=O)[C@H](CC(C)C)NC(=O)CNC(=O)[C@H](Cc2ccccc2)NC(=O)[C@@H](NC(=O)CNC(=O)[C@H](CCCNC(=N)N)NC(=O)[C@H](CO)NC(=O)[C@H](CC(C)C)NC(=O)CNC(=O)[C@H](CCC(N)=O)NC(=O)[C@H](CCC(N)=O)NC(=O)[C@H](CC(N)=O)NC(=O)[C@H](C)NC(=O)CNC(=O)[C@@H](NC(=O)[C@H](CO)NC(=O)[C@@H](NC(=O)[C@H](CO)NC(=O)[C@@H](NC(=O)[C@H](CCC(N)=O)NC(=O)[C@@H]2CCCN2C(=O)[C@@H](NC(=O)CN)C(C)C)C(C)C)[C@@H](C)O)[C@@H](C)O)CSSC[C@@H](C(=O)O)NC(=O)CNC(=O)[C@H](CC(C)C)NC(=O)CNC(=O)[C@H](CO)NC(=O)[C@H](CCSC)NC(=O)[C@H](CO)NC(=O)CNC1=O` [CL] (H-GVPQVSTSTGANQQGLSRGCFGLKLDRIGSMSGLGC-OH; disulfide 20-36 (inferred); N-terminus and C-terminus assumed), for which, in data set [1], the “resistance to NEP cleavage/degradation (in words)” value is “most resistant to NEP degradation”. For the same compound, the half-life at 100 uM in data set [2] is > 2.67 h. The cGMP response relative to 1 uM CNP22 (%) at 0.01 µM in data set [3] (setting [5]) was found to be 3%. For the same compound, the cGMP response relative to 1 uM CNP22 (%) at 1 µM in data set [3] (setting [6]) was 35%.
On to `CC[C@H](C)[C@@H]1NC(=O)[C@H](CCCNC(=N)N)NC(=O)[C@H](CC(=O)O)NC(=O)[C@H](CC(C)C)NC(=O)[C@H](CCCCN)NC(=O)[C@H](CC(C)C)NC(=O)CNC(=O)[C@H](Cc2cccc(Cl)c2)NC(=O)[C@@H](NC(=O)CNC(=O)[C@H](CCCCN)NC(=O)[C@H](CO)NC(=O)[C@H](CC(C)C)NC(=O)CN)CSSC[C@@H](C(=O)O)NC(=O)CNC(=O)[C@H](CC(C)C)NC(=O)CNC(=O)[C@H](CO)NC(=O)[C@H](CCSC)NC(=O)[C@H](CO)NC(=O)CNC1=O` [G], for which, in data set [1] (NEP at 1 ug/ml), the “half-life in comparison to wtCNP22” value is listed as “about 1.5 times”. The “resistance to cleavage at the Cys6-Phe7 bond relative to wtCNP22” value in data set [1] (data not shown) is reported as “resistance or improved resistance”. For the same compound, the “resistance to cleavage of the Gly8-Leu9 bond” value in data set [1] (in the presence of 1 ug/mL NEP, data not shown) is listed as “exhibited resistance”. This compound also gave a half-life at 100 uM in data set [2] of 2.25 h. For the same compound, in data set [3] (NIH3T3, […]), the cGMP response relative to 1 uM CNP22 (%) at 0.01 µM amounted to 17% and the cGMP response relative to 1 uM CNP22 (%) at 1 µM came to 93%.
Consider `CC[C@H](C)[C@@H]1NC(=O)[C@H](CCCNC(=N)N)NC(=O)[C@H](CC(=O)O)NC(=O)[C@H](CC(C)C)NC(=O)[C@H](CCCCN)NC(=O)[C@H](CC(C)C)NC(=O)CNC(=O)[C@H](Cc2ccccc2)NC(=O)[C@@H](NC(=O)CNC(=O)[C@H](CCCNC(=N)N)NC(=O)[C@H](CO)NC(=O)[C@H](CC(C)C)NC(=O)CNC(=O)[C@H](CCC(N)=O)NC(=O)[C@H](CCC(N)=O)NC(=O)[C@H](CC(N)=O)NC(=O)[C@H](C)NC(=O)CNC(=O)[C@@H](NC(=O)[C@H](Cc2ccc(O)cc2)NC(=O)[C@@H](NC(=O)[C@H](CCC(N)=O)NC(=O)[C@@H]2CCCN2C(=O)[C@H](CCC(=O)O)NC(=O)[C@H](CCCNC(=N)N)NC(=O)[C@@H]2CCCN2C(=O)[C@H](CCC(N)=O)NC(=O)CN)C(C)C)[C@@H](C)O)CSSC[C@@H](C(=O)O)NC(=O)CNC(=O)[C@H](CC(C)C)NC(=O)CNC(=O)[C@H](CO)NC(=O)[C@H](CCSC)NC(=O)[C@H](CO)NC(=O)CNC1=O` [CK] (H-GQPREPQVYTGANQQGLSRGCFGLKLDRIGSMSGLGC-OH; disulfide 21-37 (inferred); N-terminus and C-terminus assumed), for which the “resistance to NEP cleavage/degradation (in words)” value in data set [1] was “most resistant to NEP degradation”. Besides, the half-life at 100 uM in data set [2] is ≥ 2.67 h. For the same compound, the cGMP response relative to 1 uM CNP22 (%) at 0.01 µM in data set [3] (setting [5]) stood at 2%. The cGMP response relative to 1 uM CNP22 (%) at 1 µM in data set [3] (setting [6]) turned out to be 32%.
As for `CC[C@@H](C)[C@H]1NC(=O)[C@@H](CCCNC(=N)N)NC(=O)[C@@H](CC(=O)O)NC(=O)[C@@H](CC(C)C)NC(=O)[C@@H](CCCCN)NC(=O)[C@@H](CC(C)C)NC(=O)CNC(=O)[C@@H](Cc2ccccc2)NC(=O)[C@H](NC(=O)CNC(=O)[C@@H](CCCCN)NC(=O)[C@@H](CO)NC(=O)[C@@H](CC(C)C)NC(=O)CN)CSSC[C@H](C(=O)O)NC(=O)CNC(=O)[C@@H](CC(C)C)NC(=O)CNC(=O)[C@@H](CO)NC(=O)[C@@H](CCSC)NC(=O)[C@@H](CO)NC(=O)CNC1=O` [N], the “resistance to NEP cleavage/degradation (in words)” value in data set [1] (setting [4]) was “greatest resistance to NEP cleavage”. The half-life at 100 uM in data set [2] was > 2.67 h. Besides, in data set [3] (NIH3T3, […]), the cGMP response relative to 1 uM CNP22 (%) at 0.01 µM is 2% and the cGMP response relative to 1 uM CNP22 (%) at 1 µM came out at 1%.
